{"source": "patent US10376558B2", "about": "“Method and compositions for synchronizing time of insemination in gilts” (UNITED-AH II, LLC, priority 2012, dated 2019)", "key": {"gilts [1]": {"system": "gilts", "experiment": "Example 1: estrus detection after triptorelin gel at 96, 120 or 144 h after last MATRIX feeding", "assay_type": "in vivo, swine", "conditions": "raw average, PTK 1-07 (rep 3); 200 mcg T at 120 h after MATRIX withdrawal", "description": "All gilts were individually fed MATRIX® as a top-dress for 14 days at the recommended rate of 15 mg/gilt/day. Gilts were withdrawn from MATRIX® feeding (last top feed in the morning on Day 0) and allotted to treatments. Controls were treated with a 1.2% methylcellulose gel formulation without triptorelin at 96 hours following MATRIX® withdrawal (last top-dress). The remaining gilts received 200 mcg triptorelin, as the acetate, in a 1.2% methylcellulose gel formulation intravaginally at various times after MATRIX® withdrawal. The four treatments were: 1) vehicle gel (VG) treatment at 96 hours after MATRIX® withdrawal, 2) triptorelin gel (TG) treatment at 96 hours after MATRIX® withdrawal, 3) TG treatment at 120 hours after MATRIX® withdrawal and 4) TG treatment at 144 hours after MATRIX® withdrawal. All gilts were monitored for their estrous and ovulatory status as described below. Gilts included in replicate 1 were selected from terminal line commercial production gilts located in grow/finish barns. Sexual maturity, as indicated by one or more estrous periods, was not verified prior to the start of MATRIX® feeding. Gilts included in replicate 2 were selected from a maternal line gilt population. Sexual maturity was verified by at least one estrous period verified and recorded prior to starting MATRIX® feeding. […]\nData were analyzed using the Mixed Models procedures of SAS. […]"}, "gilts [2]": {"system": "gilts", "experiment": "Example 5: ovulation monitoring by transrectal ultrasonography after 100, 200 or 400 mcg triptorelin gel at 120 h post-MATRIX", "assay_type": "in vivo, swine", "conditions": "for Percentage ovulated by 48 hours: after treatment; for Time at which ovulation detected: relative to time of triptorelin gel treatment, Least Squares Mean ± SE; for % of Sows Ovulating / Interval from MATRIX Withdrawal to Ovulation: raw average, PTK 2-07", "description": "All gilts were individually fed MATRIX® as a top-dress for 14 or 15 days at the recommended rate of 15 mg/gilt/day. Gilts were withdrawn from MATRIX® feeding (last top-dress in the morning on Day 0) and allocated to each of the following treatments. Controls were vehicle gel treated (vehicle gel without triptorelin) at 120 (+/−2) hours following MATRIX® withdrawal (last top dress). The other gilts were given 100, 200 or 400 mcg triptorelin as the acetate in a methylcellulose gel formulation 120 (+/−2) hours following MATRIX® withdrawal. The four treatments were:\n2. TG 100: 100 mcg (2 mL 50 mcg/mL) triptorelin gel at 120 (+/−2) hours after MATRIX® withdrawal.\n3. TG 200: 200 mcg (2 mL 100 mcg/mL) triptorelin gel at 120 (+/−2) hours after MATRIX® withdrawal.\n4. TG 400: 400 mcg (2 mL 200 mcg/mL) triptorelin gel at 120 (+/−2) hours after MATRIX® withdrawal.\nOvulation was monitored twice on Day 5 (8 hours and 16 hours post-treatment) and every 8 hours on Day 6 and Day 7 or until ovulation was confirmed or 176 hours following last MATRIX® feeding. The ovulatory status of all gilts was monitored by transrectal ultrasonography. An Aloka 500 ultrasound machine is used for this purpose, with a 7.5 MHz linear array transducer attached to a fixed-angle PVC stabilizing rod to facilitate insertion into the rectum. The transducer and PVC rod are coated with a gynecological lubricant and gently inserted into the rectum until the ovaries can be visualized, one at a time. The diameters of the three largest follicles were recorded (to the nearest 0.1 mm) at each scanning. A gilt was declared to have ovulated when the number of large follicles (≥6.5 mm) fell to less than 3.\nA single 2 mL dose of triptorelin gel or vehicle gel was deposited within approximately 1-2 cm posterior to the cervix with a catheter similar to those used for artificial insemination. The dose was delivered using a standard multi-dose applicator attached to the catheter. A new disposable sheath, which surrounds the catheter, was used for each gilt."}, "[3]": {"conditions": "100 mcg T (n = 6 catheterized gilts)"}, "[4]": {"conditions": "200 mcg T (n = 7 catheterized gilts)"}}}
{"molecule": "CC(C)C[C@H](NC(=O)[C@@H](Cc1c[nH]c2ccccc12)NC(=O)[C@H](Cc1ccc(O)cc1)NC(=O)[C@H](CO)NC(=O)[C@H](Cc1c[nH]c2ccccc12)NC(=O)[C@H](Cc1c[nH]cn1)NC(=O)[C@@H]1CCC(=O)N1)C(=O)N[C@@H](CCCNC(=N)N)C(=O)N1CCC[C@H]1C(=O)NCC(N)=O", "note": "[T, pGlu-His-Trp-Ser-Tyr-D-Trp-Leu-Arg-Pro-Gly-NH2]", "values": [{"measurement": "Estrous Expression (%)", "setting": "gilts [1]", "result": 100.0, "unit": "%"}, {"measurement": "Interval from MATRIX withdrawal to Estrus", "setting": "gilts [1]", "result": 129.6, "unit": "h"}, {"measurement": "Percentage ovulated by 48 hours", "setting": "gilts [2]; [3]", "result": 100, "unit": "%"}, {"measurement": "Time at which ovulation detected", "setting": "gilts [2]; [3]", "result": "40 ± 10", "unit": "h"}, {"measurement": "Percentage ovulated by 48 hours", "setting": "gilts [2]; [4]", "result": 100, "unit": "%"}, {"measurement": "Time at which ovulation detected", "setting": "gilts [2]; [4]", "result": "34 ± 9", "unit": "h"}, {"measurement": "% of Sows Ovulating", "setting": "gilts [2]; 100 mcg T at 120 h, 128 h post-MATRIX, 8 h post-T", "result": 0.0, "unit": "%"}, {"measurement": "% of Sows Ovulating", "setting": "gilts [2]; 100 mcg T at 120 h, 136 h post-MATRIX, 16 h post-T", "result": 5.0, "unit": "%"}, {"measurement": "% of Sows Ovulating", "setting": "gilts [2]; 100 mcg T at 120 h, 144 h post-MATRIX, 24 h post-T", "result": 20.0, "unit": "%"}, {"measurement": "% of Sows Ovulating", "setting": "gilts [2]; 100 mcg T at 120 h, 152 h post-MATRIX, 32 h post-T", "result": 30.0, "unit": "%"}, {"measurement": "% of Sows Ovulating", "setting": "gilts [2]; 100 mcg T at 120 h, 160 h post-MATRIX, 40 h post-T", "result": 60.0, "unit": "%"}, {"measurement": "% of Sows Ovulating", "setting": "gilts [2]; 100 mcg T at 120 h, 168 h post-MATRIX, 48 h post-T", "result": 95.0, "unit": "%"}, {"measurement": "% of Sows Ovulating", "setting": "gilts [2]; 100 mcg T at 120 h, 176 h post-MATRIX, 56 h post-T", "result": 100.0, "unit": "%"}, {"measurement": "Interval from MATRIX Withdrawal to Ovulation", "setting": "gilts [2]; 100 mcg T at 120 h after MATRIX withdrawal", "result": 159.2}, {"measurement": "% of Sows Ovulating", "setting": "gilts [2]; 200 mcg T at 120 h, 128 h post-MATRIX, 8 h post-T", "result": 0.0, "unit": "%"}, {"measurement": "% of Sows Ovulating", "setting": "gilts [2]; 200 mcg T at 120 h, 136 h post-MATRIX, 16 h post-T", "result": 0.0, "unit": "%"}, {"measurement": "% of Sows Ovulating", "setting": "gilts [2]; 200 mcg T at 120 h, 144 h post-MATRIX, 24 h post-T", "result": 23.8, "unit": "%"}, {"measurement": "% of Sows Ovulating", "setting": "gilts [2]; 200 mcg T at 120 h, 152 h post-MATRIX, 32 h post-T", "result": 33.3, "unit": "%"}, {"measurement": "% of Sows Ovulating", "setting": "gilts [2]; 200 mcg T at 120 h, 160 h post-MATRIX, 40 h post-T", "result": 52.4, "unit": "%"}, {"measurement": "% of Sows Ovulating", "setting": "gilts [2]; 200 mcg T at 120 h, 168 h post-MATRIX, 48 h post-T", "result": 95.2, "unit": "%"}, {"measurement": "% of Sows Ovulating", "setting": "gilts [2]; 200 mcg T at 120 h, 176 h post-MATRIX, 56 h post-T", "result": 95.2, "unit": "%"}, {"measurement": "Interval from MATRIX Withdrawal to Ovulation", "setting": "gilts [2]; 200 mcg T at 120 h after MATRIX withdrawal", "result": 158.8}, {"measurement": "% of Sows Ovulating", "setting": "gilts [2]; 400 mcg T at 120 h, 128 h post-MATRIX, 8 h post-T", "result": 4.5, "unit": "%"}, {"measurement": "% of Sows Ovulating", "setting": "gilts [2]; 400 mcg T at 120 h, 136 h post-MATRIX, 16 h post-T", "result": 9.1, "unit": "%"}, {"measurement": "% of Sows Ovulating", "setting": "gilts [2]; 400 mcg T at 120 h, 144 h post-MATRIX, 24 h post-T", "result": 22.7, "unit": "%"}, {"measurement": "% of Sows Ovulating", "setting": "gilts [2]; 400 mcg T at 120 h, 152 h post-MATRIX, 32 h post-T", "result": 36.4, "unit": "%"}, {"measurement": "% of Sows Ovulating", "setting": "gilts [2]; 400 mcg T at 120 h, 160 h post-MATRIX, 40 h post-T", "result": 63.6, "unit": "%"}, {"measurement": "% of Sows Ovulating", "setting": "gilts [2]; 400 mcg T at 120 h, 168 h post-MATRIX, 48 h post-T", "result": 100.0, "unit": "%"}, {"measurement": "% of Sows Ovulating", "setting": "gilts [2]; 400 mcg T at 120 h, 176 h post-MATRIX, 56 h post-T", "result": 100.0, "unit": "%"}, {"measurement": "Interval from MATRIX Withdrawal to Ovulation", "setting": "gilts [2]; 400 mcg T at 120 h after MATRIX withdrawal", "result": 157.1}]}
